ChEMBL document CHEMBL1201862, “PubChem BioAssay data set” (2004)
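96-well plates; 48 h exposure; 5 concentrations. Endpoints by linear interpolation between flanking doses. Not reached: highest tested concentration assigned. At the GI50, growth is halved.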 The source made the active and inactive calls. Cut-off read from the data, not from the text of the source: active = GI50 up to about 1.1 µM and inactive = higher.

Columns and labels:
Experiment in all cases: DTP human tumour cell line panel, 48 h
786-0 = system: 786-0
A549 = system: A549
ACHN = system: ACHN
CCRF-CEM = system: CCRF-CEM
IGROV-1 = system: IGROV-1
K562 = system: K562
KM12 = system: KM12
NCI-H226 = system: NCI-H226
NCI-H460 = system: NCI-H460
SF-268 = system: SF-268
SF-295 = system: SF-295
SK-MEL-5 = system: SK-MEL-5
SK-OV-3 = system: SK-OV-3
U-251 = system: U-251
UO-31 = system: UO-31
OVCAR-5 = system: OVCAR-5
SR = system: SR

Measured: GI50

O=C(Nc1ccccc1)n1cc(-c2ccccn2)c(N2CCOCC2)n1
inactive: 786-0 4.49 µM | A549 18.8 µM | ACHN 36.6 µM | CCRF-CEM 5.48 µM | IGROV-1 12 µM | K562 3.58 µM | KM12 1.79 µM | NCI-H226 23.8 µM | NCI-H460 4.19 µM | SF-268 > 100 µM | SF-295 1.9 µM | SK-MEL-5 6.04 µM | SK-OV-3 9.84 µM | U-251 4.94 µM | UO-31 11.8 µM

N#CC(c1ccc(Cl)cc1)c1cccc(Cl)n1 (stereo not drawn)
inactive: 786-0 82.2 µM | A549 31 µM | ACHN 32.7 µM | CCRF-CEM > 100 µM | K562 58.9 µM | KM12 78.3 µM | NCI-H226 43.6 µM | NCI-H460 > 100 µM | OVCAR-5 > 100 µM | SF-268 38.4 µM | SF-295 61.9 µM | SK-OV-3 42.1 µM | SR 45.1 µM | U-251 97.9 µM | UO-31 28.1 µM

CC1=CC(=O)NP(=O)(Oc2ccc(C)cc2)N1 (stereo not drawn)
inactive: 786-0 > 100 µM | ACHN > 100 µM | CCRF-CEM > 100 µM | IGROV-1 > 100 µM | K562 > 100 µM | KM12 > 100 µM | NCI-H226 > 100 µM | NCI-H460 > 100 µM | OVCAR-5 > 100 µM | SF-268 > 100 µM | SF-295 > 100 µM | SK-MEL-5 > 100 µM | SK-OV-3 > 100 µM | SR > 100 µM | U-251 > 100 µM | UO-31 > 100 µM

CCCOCN1COCN/C1=N\C#N
inactive: 786-0 22 µM | A549 42.3 µM | ACHN 52.4 µM | IGROV-1 > 100 µM | K562 > 100 µM | KM12 > 100 µM | NCI-H226 > 100 µM | NCI-H460 > 100 µM | OVCAR-5 > 100 µM | SF-268 39.1 µM | SF-295 > 100 µM | SK-MEL-5 > 100 µM | SK-OV-3 > 100 µM | U-251 21.6 µM | UO-31 > 100 µM

COc1ccc([C@@H]2OC(=O)C3C2C(=O)O[C@H]3c2ccc(OC)cc2)cc1 (stereo partly drawn)
inactive: 786-0 > 100 µM | A549 > 100 µM | ACHN > 100 µM | CCRF-CEM > 100 µM | IGROV-1 > 100 µM | K562 > 100 µM | KM12 > 100 µM | NCI-H460 > 100 µM | SF-295 > 100 µM | SK-OV-3 > 100 µM | SR > 100 µM | U-251 > 100 µM | UO-31 > 100 µM

Cc1ccc(Sc2ccc(C)cc2[N+](=O)[O-])c([N+](=O)[O-])c1
inactive: 786-0 > 100 µM | A549 > 100 µM | ACHN > 100 µM | CCRF-CEM > 100 µM | IGROV-1 > 100 µM | K562 > 100 µM | KM12 > 100 µM | NCI-H226 > 100 µM | NCI-H460 > 100 µM | OVCAR-5 > 100 µM | SF-268 > 100 µM | SF-295 > 100 µM | SK-MEL-5 > 100 µM | SK-OV-3 > 100 µM | U-251 > 100 µM | UO-31 > 100 µM

CCOC(=O)[C-]([N+]#N)[Si](C)(C)C
inactive: 786-0 > 100 µM | A549 > 100 µM | ACHN > 100 µM | IGROV-1 > 100 µM | KM12 > 100 µM | NCI-H460 > 100 µM | OVCAR-5 > 100 µM | SF-268 21.6 µM | SF-295 > 100 µM | SK-MEL-5 > 100 µM | U-251 24.2 µM

O=C(O)CNc1c2ccccc2nc2ccccc12
inactive: 786-0 > 100 µM | A549 > 100 µM | ACHN > 100 µM | CCRF-CEM > 100 µM | IGROV-1 > 100 µM | K562 > 100 µM | KM12 > 100 µM | NCI-H226 > 100 µM | NCI-H460 > 100 µM | OVCAR-5 > 100 µM | SF-268 > 100 µM | SF-295 > 100 µM | SK-MEL-5 > 100 µM | SK-OV-3 > 100 µM | SR > 100 µM | U-251 > 100 µM | UO-31 50.6 µM

c1ccc(COCC2OC3c4ccccc4COC3C2OCc2ccccc2)cc1 (stereo not drawn)
inactive: 786-0 > 100 µM | A549 > 100 µM | ACHN > 100 µM | IGROV-1 > 100 µM | K562 57.5 µM | KM12 > 100 µM | NCI-H226 > 100 µM | NCI-H460 71.6 µM | OVCAR-5 > 100 µM | SF-295 77.3 µM | SK-MEL-5 70.6 µM | SK-OV-3 > 100 µM | SR 57.8 µM | U-251 > 100 µM | UO-31 > 100 µM
